Measured values as given in US20210113563A1, “4-(4-CYANO-2-THIOARYL)DIHYDROPYRIMIDINONES FOR TREATING CHRONIC WOUNDS” (pH Pharma Co., Ltd., priority 2015, published 2021).

What was measured:
[1] = Exposure in plasma and skin of diabetic mouse (db/db); assay type: in vivo; settings: for Total concentration in skin: day 8; for Total concentration in plasma, geo mean: day 8, 20 h after last treatment
Experimental: Upon scarification on day 8, 20 h after the last treatment, arterial blood samples were collected into EDTA citrate serum sample tubes for LC/MSMS based quantification of compound exposure.

[2] = system: wounds of diabetic mouse (db/db); assay: Visual wound size reduction in diabetic mouse (db/db); assay type: in vivo
Experimental: The wounding was conducted in the following manner: • 1) db/db mice were anaesthetized with Isoflurane/O2/N2O (2.5-3.5%/800 ml/min/500 ml/min), and placed on a heating pad upon induction after application of eye ointment • 2) mice were shaven and Pilca was applied for 3-5 minutes to remove the fur and fine hairs 3) two dorsal full thickness wounds were placed with a 8 mm punch biopsie tool after wiping the skin with ethanol and wound size was measured immediately • 4) mice were treated with Temgesic and kept on warming pad until recovery from anaesthesia
Wound Size Measurement: Wound size was measured with a sliding caliper. […] Assuming an elliptic shape, wound area was calculated with:
Wound size reduction on day i was calculated from the initial area on day 0 post wounding: […]

[3] = system: collagen in ulcer tissue; assay: Collagen deposition in chronic skin lesions of adriamycin-treated rats, Ladewig staining; assay type: in vivo, rat; settings: 10 mg/kg BW o.d. p.o., normal skin = 0, no blue staining = −10
Experimental: Vehicle: • DEPO—DMSO, Ethanol, Peanut Oil 5/3/92 (V/V/V) o.d., p.o., 5 ml/kg BW
Day 0: • Animal randomization, marking, inhalation anesthesia: isoflurane, O2, N2O mixture, shaving of lower back, the animals remain on warming pads in order to avoid cooling down during the adriamycin injection, pain prevention with Temgesic s.c.
Depot set: 3 intradermal injections of 0.15 ml adriamycin (2 mg/ml) per animal in front and rear back, size measurement of the depot via caliper.
(§1) On day 2, 4, 7, 9, 11, 14, 16, 18, 21, 23, 25 and 28 • inhalation anesthesia: isoflurane, O2, N2O mixture • size measurement of the depot and photos Day 28 section • inhalation anesthesia: isoflurane, O2, N2O mixture under anesthesia and then dislocation of the cervical spine • size measurement of the depot and the incision wound and photos • Former depots were harvested by punch biopsies • Wound 1/custodian of any animal->in liquid N2 for peroxidase and elastase determination • Wound 2/custodian of any animal->in liquid N2 for Hydroxyproline determination • Wound 3/custodian of any animal->in formalin fixed for histological studies • Samples were stored for further procedures at −80° C.
Paraffin-embedded skin samples: the skin piece is placed with the downside on a piece of cork and 4 with needles and transferred into formalin (3.7% in PBS). […]

[4] = system: collagen (hydroxyproline); assay: Hydroxyproline (HYP) assay in skin lesions of adriamycin-treated rats; assay type: in vivo, rat; settings: 10 mg/kg BW o.d. p.o.
Text: as §1

[5] = system: collagen type I and collagen type III in ulcer tissue; assay: Collagen type I and III in chronic skin lesions of adriamycin-treated rats, Sirius red staining; assay type: in vivo, rat; settings: for Collagen type I / Collagen type III: adriamycin-treated rats, 10 mg/kg BW o.d.
Text: as §1
After sufficient time in formalin (24-72 h), the samples were trimmed to an appropriate size and transferred to histology-cassettes. The histo-cassettes are watered 2 h under running tap water at room temperature. The drainage and waxing was done using a Leica ASP200, the samples were embedded in paraffin, sectioned by microtome and mounted on slides. The paraffin sections were stained depending on the question (Ladewig or Sirius Red)
(§2) To assess the content of collagen type I (mature form) and collagen type III (newly formed) in ulcer tissue, Sirius red staining was performed according to standard protocols.

[6] = system: collagen type I and collagen type III in ulcer tissue; assay: Collagen type I and III in lesions of pressure-applied mouse skin, Sirius red staining; assay type: in vivo; settings: for Collagen type I / Collagen type III: pressure-applied mouse skin, day 3 to 15, Sirius red
Text: OBJECTIVE: Pressure ulcers (decubitus ulcers) represents a large subgroup of chronic wounds. They mainly affect aged or neurologically immobilized patients. Continuous pressure at discrete skin areas leads to long-lasting hard-to-heal ulcer wounds that are also characterized by neutrophil infiltration. The presented experiment was set up to mimic this condition by applying magnet-induced pressure onto mouse skin folds. Since the area of emerging wounds is variable in form and size, its usability as a readout parameter is technically limited.
METHODS: Magnet placement leads to wounds with dermal neutrophil infiltration and delayed wound healing. Three ischemia-reperfusion (IR) cycles (12 hours on, 12 hours off) were applied in each animal to initiate decubitus ulcer formation.
On day 0 (start of experiment), the mice were weighed and put in anesthesia using an isoflurane/O2/N2O mixture. Back and flank skin was shaven. Skin was moistened with tap water and depilated using Pilca cream. Skin was lifted at the back midline and one magnet was placed on each side of the skin fold so that they were exactly opposite to each other. The magnets were left in place for 12 hours, then taken off for 12 hours. This cycle was repeated three times in total.
After sacrificing (day 15) wounds were excised using a 10 mm punch scalpel.
as §2

With CC1=C(C#N)[C@@H](c2ccc(C#N)cc2S(C)(=O)=O)N(C)C(=O)N1c1cccc(C(F)(F)F)c1 [Example 5, (4 S)-4-[4-Cyano-2-(methylsulfonyl)phenyl]-3,6-dimethyl-2-oxo-1-[3-(trifluoromethyl)phenyl]-1,2,3,4-tetrahydropyrimidine-5-carbonitrile] as the molecule, how does the “Total concentration in skin” value ([1]; 0.03 mg/kg BW o.d. p.o.) read?
Its value is 0.01 µM.

What about the “Total concentration in plasma, geo mean” value ([1]; 0.03 mg/kg BW o.d. p.o.) of the same molecule?
The value was 0.0029 µM.

What about the “Total concentration in skin” value ([1]; 0.1 mg/kg BW o.d. p.o.) of the same molecule?
Its value is 0.03 µM.

What about the “Total concentration in plasma, geo mean” value ([1]; 0.1 mg/kg BW o.d. p.o.) of the same molecule?
Its value is 0.011 µM.

And the “Total concentration in skin” value ([1]; 0.3 mg/kg BW o.d. p.o.)?
Its value is 0.06 µM.

And the “Total concentration in plasma, geo mean” value ([1]; 0.3 mg/kg BW o.d. p.o.)?
Its value is 0.027 µM.

And the “Total concentration in skin” value ([1]; 1.0 mg/kg BW o.d. p.o.)?
Its value is 0.16 µM.

And the “Total concentration in plasma, geo mean” value ([1]; 1.0 mg/kg BW o.d. p.o.)?
The value was 0.067 µM.

And the “Total concentration in skin” value ([1]; 3.0 mg/kg BW o.d. p.o.)?
Its value is 0.30 ± 0.06 µM.

What about the “Total concentration in plasma, geo mean” value ([1]; 3.0 mg/kg BW o.d. p.o.) of the same molecule?
The value was 0.13 µM.

What about the “Total concentration in skin” value ([1]; 10.0 mg/kg BW o.d. p.o.) of the same molecule?
The value was 0.54 µM.

What about the “Total concentration in plasma, geo mean” value ([1]; 10.0 mg/kg BW o.d. p.o.) of the same molecule?
Its value is 0.17 µM.

What about the Visual wound size ([2]; 0.03 mg/kg BW o.d. p.o.) of the same molecule?
The Visual wound size was 98.5 % initial area at day 8.

And the Visual wound size ([2]; 0.1 mg/kg BW o.d. p.o.)?
The Visual wound size was 86.07 % initial area at day 8.

What about the Visual wound size ([2]; 0.3 mg/kg BW o.d. p.o.) of the same molecule?
Its Visual wound size is 72 % initial area at day 8.

What about the Visual wound size ([2]; 1.0 mg/kg BW o.d. p.o.) of the same molecule?
The Visual wound size was 71.16 % initial area at day 8.

What about the Visual wound size ([2]; 3.0 mg/kg BW o.d. p.o.) of the same molecule?
The Visual wound size was 68.1 % initial area at day 8.

And the Visual wound size ([2]; 10.0 mg/kg BW o.d. p.o.)?
The Visual wound size was 54.85 % initial area at day 8.

What about the EC50 ([2]; in vivo, read-out: Potency (EC50) to improve wound size reduction) of the same molecule?
The EC50 was 4.5 nM.

And the Ladewig score [3]?
Its Ladewig score is −1.38 (n = 8).

What about the Hydroxyproline [4] of the same molecule?
Its Hydroxyproline is 5169 (n = 10).

What about the “Collagen type I” value ([5]; d 14-28, Sirius red) of the same molecule?
The value was 9.7.

And the “Collagen type III” value ([5]; d 14-28, Sirius red)?
Its value is 46.69.

What about the “Collagen type I” value ([5]; d 21-37, Sirius red) of the same molecule?
Its value is 8.8.

And the “Collagen type III” value ([5]; d 21-37, Sirius red)?
The value was 72.23.

And the “Collagen type III in Adriamycin-induced lesions (in words)” value ([5]; rats, after two weeks of treatment)?
Its value is “strong increase of collagen type III”.

And the “Collagen type III in pressure-induced lesions (in words)” value ([6]; mice, after 12 days of treatment)?
The value was “significant increase of collagen type III”.

And the “Collagen type I” value ([6]; 1 mg/kg BW o.d.)?
The value was 1.1.

What about the “Collagen type III” value ([6]; 1 mg/kg BW o.d.) of the same molecule?
The value was 30.2.

And the “Collagen type I” value ([6]; 10 mg/kg BW o.d.)?
The value was 0.7.

What about the “Collagen type III” value ([6]; 10 mg/kg BW o.d.) of the same molecule?
Its value is 49.8.
